Measurements: US6872690B2, “Herbicidal 2-alkynyl-pyri (mi) dines” (WYETH, priority 2001, dated 2005)

Assays:
Type in all cases: in vivo
Lamium purpureum = test: Pre-emergence test; settings: 3 weeks after treatment
Procedure: (§1) To evaluate their herbicidal activity, compounds according to the invention are tested using a representative range of plants:
(§2) The pre-emergence tests involve spraying a liquid formulation of the compound onto the soil in which the seeds of the plant species mentioned above has recently been sown.
(§3) The soil used in the tests is a prepared horticultural loam. The formulations used in the tests are prepared from solutions of the test compounds in acetone containing 0.4% by weight of an alkyl-phenol/ethylene oxide condensate available under the trade mark TRITON X-155. These acetone solutions are diluted with water and the resulting formulations applied at dosage levels corresponding to 0.013 kg, 0.025 kg, 0.100 kg or 0.400 kg of active material per hectare in a volume equivalent to 900 litres per hectare. In these tests untreated sown soil are used as controls. From 2 to 4 weeks after treatment, the tests are terminated and each pot is examined and rated according to the rating system set forth below: […]

Echinochloa crus-galli [1] = test: Pre-emergence test; settings: 3 weeks after treatment
Procedure: as §1, §2, §3

Cassia obtusifolia [2] = test: Pre-emergence test; settings: 3 weeks after treatment
Procedure: as §1, §2, §3

Ipomoea hederacea [3] = test: Pre-emergence test; settings: 3 weeks after treatment
Procedure: as §1, §2, §3

Zea mays [4] = test: Pre-emergence test; settings: 3 weeks after treatment
Procedure: as §1, §2, §3

Setaria viridis [5] = test: Pre-emergence test; settings: 3 weeks after treatment
Procedure: as §1, §2, §3

Matricaria inodora [6] = test: Pre-emergence test; settings: 3 weeks after treatment
Procedure: as §1, §2, §3

Abutilon theophrasti [7] = test: Pre-emergence test; settings: 3 weeks after treatment
Procedure: as §1, §2, §3

Alopecurus myosuroides [8] = test: Pre-emergence test; settings: 3 weeks after treatment
Procedure: as §1, §2, §3

Stellaria media [9] = test: Pre-emergence test; settings: 3 weeks after treatment
Procedure: as §1, §2, §3

Triticum aestivum [10] = test: Pre-emergence test; settings: 3 weeks after treatment
Procedure: as §1, §2, §3

Galium aparine [11] = test: Pre-emergence test; settings: 3 weeks after treatment
Procedure: as §1, §2, §3

Digitaria sanguinalis [12] = test: Pre-emergence test; settings: 3 weeks after treatment
Procedure: as §1, §2, §3

Glycine max [13] = test: Pre-emergence test; settings: 3 weeks after treatment
Procedure: as §1, §2, §3

Orysa sativa [14] = test: Pre-emergence test; settings: 3 weeks after treatment
Procedure: as §1, §2, §3

Echinochloa crus-galli [15] = test: Post-emergence herbicidal activity test; settings: 2-4 weeks after treatment
Procedure: as §1
(§4) These acetone solutions are diluted with water and the resulting formulations applied at dosage levels equivalent of about 0.025 to 0. 4 kg per hectare of test compound per pot. After spraying the plants are placed on greenhouse benches and are cared for in the usual manner, commensurate with conventional greenhouse practices. From 2 to 4 weeks after treatment, the seedling plants are examined and rated according to the rating system provided above.

Cassia obtusifolia [16] = test: Post-emergence herbicidal activity test; settings: 2-4 weeks after treatment
Procedure: as §1, §4

Ipomoea hederacea [17] = test: Post-emergence herbicidal activity test; settings: 2-4 weeks after treatment
Procedure: as §1, §4

Zea mays [18] = test: Post-emergence herbicidal activity test; settings: 2-4 weeks after treatment
Procedure: as §1, §4

Setaria viridis [19] = test: Post-emergence herbicidal activity test; settings: 2-4 weeks after treatment
Procedure: as §1, §4

Matricaria inodora [20] = test: Post-emergence herbicidal activity test; settings: 2-4 weeks after treatment
Procedure: as §1, §4

Abutilon theophrasti [21] = test: Post-emergence herbicidal activity test; settings: 2-4 weeks after treatment
Procedure: as §1, §4

Alopecurus myosuroides [22] = test: Post-emergence herbicidal activity test; settings: 2-4 weeks after treatment
Procedure: as §1, §4

Stellaria media [23] = test: Post-emergence herbicidal activity test; settings: 2-4 weeks after treatment
Procedure: as §1, §4

Triticum aestivum [24] = test: Post-emergence herbicidal activity test; settings: 2-4 weeks after treatment
Procedure: as §1, §4

Galium aparine [25] = test: Post-emergence herbicidal activity test; settings: 2-4 weeks after treatment
Procedure: as §1, §4

Digitaria sanguinalis [26] = test: Post-emergence herbicidal activity test; settings: 2-4 weeks after treatment
Procedure: as §1, §4

Glycine max [27] = test: Post-emergence herbicidal activity test; settings: 2-4 weeks after treatment
Procedure: as §1, §4

Orysa sativa [28] = test: Post-emergence herbicidal activity test; settings: 2-4 weeks after treatment
Procedure: as §1, §4

Cc1cc(C#Cc2ccccc2)nc(Oc2cc(C(F)(F)F)nn2C)c1 [Example 1, 4-methyl-6-phenylethynyl-2-(1-methyl-3-trifluoromethylpyrazol-5-yloxy)pyridine]
Assessment (pre-emergence application) LAMPU (Lamium purpureum; 0.013 kg/ha): 7 (7-Good herbicidal effect)
Assessment (pre-emergence application) LAMPU (Lamium purpureum; 0.100 kg/ha): 8 (8-Approaching complete kill)
Assessment (pre-emergence application) LAMPU (Lamium purpureum; 0.400 kg/ha): 8 (8-Approaching complete kill)
Assessment (pre-emergence application) ECHCG (Echinochloa crus-galli [1]; 0.013 kg/ha): 1 (1-Trace effect)
Assessment (pre-emergence application) ECHCG (Echinochloa crus-galli [1]; 0.025 kg/ha): 4 (4-Injury)
Assessment (pre-emergence application) ECHCG (Echinochloa crus-galli [1]; 0.100 kg/ha): 5 (5-Definite injury)
Assessment (pre-emergence application) ECHCG (Echinochloa crus-galli [1]; 0.400 kg/ha): 8 (8-Approaching complete kill)
Assessment (pre-emergence application) CASOB (Cassia obtusifolia [2]; 0.013 kg/ha): 1 (1-Trace effect)
Assessment (pre-emergence application) CASOB (Cassia obtusifolia [2]; 0.400 kg/ha): 8 (8-Approaching complete kill)
Assessment (pre-emergence application) IPOHE (Ipomoea hederacea [3]; 0.013 kg/ha): 3 (3-Moderate effect)
Assessment (pre-emergence application) IPOHE (Ipomoea hederacea [3]; 0.100 kg/ha): 4 (4-Injury)
Assessment (pre-emergence application) IPOHE (Ipomoea hederacea [3]; 0.400 kg/ha): 9 (9-Complete kill)
Assessment (pre-emergence application) ZEAMX (Zea mays [4]; 0.013 kg/ha): 1 (1-Trace effect)
Assessment (pre-emergence application) ZEAMX (Zea mays [4]; 0.025 kg/ha): 2 (2-Slight effect)
Assessment (pre-emergence application) ZEAMX (Zea mays [4]; 0.100 kg/ha): 2 (2-Slight effect)
Assessment (pre-emergence application) ZEAMX (Zea mays [4]; 0.400 kg/ha): 4 (4-Injury)
Assessment (pre-emergence application) SETVI (Setaria viridis [5]; 0.013 kg/ha): 4 (4-Injury)
Assessment (pre-emergence application) SETVI (Setaria viridis [5]; 0.025 kg/ha): 7 (7-Good herbicidal effect)
Assessment (pre-emergence application) SETVI (Setaria viridis [5]; 0.100 kg/ha): 8 (8-Approaching complete kill)
Assessment (pre-emergence application) SETVI (Setaria viridis [5]; 0.400 kg/ha): 9 (9-Complete kill)
Assessment (pre-emergence application) MATIN (Matricaria inodora [6]; 0.013 kg/ha): 5 (5-Definite injury)
Assessment (pre-emergence application) MATIN (Matricaria inodora [6]; 0.025 kg/ha): 7 (7-Good herbicidal effect)
Assessment (pre-emergence application) MATIN (Matricaria inodora [6]; 0.100 kg/ha): 8 (8-Approaching complete kill)
Assessment (pre-emergence application) MATIN (Matricaria inodora [6]; 0.400 kg/ha): 8 (8-Approaching complete kill)
Assessment (pre-emergence application) ABUTH (Abutilon theophrasti [7]; 0.013 kg/ha): 4 (4-Injury)
Assessment (pre-emergence application) ABUTH (Abutilon theophrasti [7]; 0.100 kg/ha): 5 (5-Definite injury)
Assessment (pre-emergence application) ABUTH (Abutilon theophrasti [7]; 0.400 kg/ha): 9 (9-Complete kill)
Assessment (pre-emergence application) ALOMY (Alopecurus myosuroides [8]; 0.013 kg/ha): 1 (1-Trace effect)
Assessment (pre-emergence application) ALOMY (Alopecurus myosuroides [8]; 0.025 kg/ha): 2 (2-Slight effect)
Assessment (pre-emergence application) ALOMY (Alopecurus myosuroides [8]; 0.100 kg/ha): 4 (4-Injury)
Assessment (pre-emergence application) ALOMY (Alopecurus myosuroides [8]; 0.400 kg/ha): 8 (8-Approaching complete kill)
Assessment (pre-emergence application) STEME (Stellaria media [9]; 0.013 kg/ha): 5 (5-Definite injury)
Assessment (pre-emergence application) STEME (Stellaria media [9]; 0.025 kg/ha): 8 (8-Approaching complete kill)
Assessment (pre-emergence application) STEME (Stellaria media [9]; 0.100 kg/ha): 9 (9-Complete kill)
Assessment (pre-emergence application) STEME (Stellaria media [9]; 0.400 kg/ha): 9 (9-Complete kill)
Assessment (pre-emergence application) TRZWA (Triticum aestivum [10]; 0.013 kg/ha): 0 (0-No effect)
Assessment (pre-emergence application) TRZWA (Triticum aestivum [10]; 0.025 kg/ha): 0 (0-No effect)
Assessment (pre-emergence application) TRZWA (Triticum aestivum [10]; 0.100 kg/ha): 2 (2-Slight effect)
Assessment (pre-emergence application) TRZWA (Triticum aestivum [10]; 0.400 kg/ha): 3 (3-Moderate effect)
Assessment (pre-emergence application) GALAP (Galium aparine [11]; 0.013 kg/ha): 1 (1-Trace effect)
Assessment (pre-emergence application) GALAP (Galium aparine [11]; 0.025 kg/ha): 2 (2-Slight effect)
Assessment (pre-emergence application) GALAP (Galium aparine [11]; 0.100 kg/ha): 3 (3-Moderate effect)
Assessment (pre-emergence application) GALAP (Galium aparine [11]; 0.400 kg/ha): 7 (7-Good herbicidal effect)
Assessment (pre-emergence application) DIGSA (Digitaria sanguinalis [12]; 0.013 kg/ha): 5 (5-Definite injury)
Assessment (pre-emergence application) DIGSA (Digitaria sanguinalis [12]; 0.025 kg/ha): 5 (5-Definite injury)
Assessment (pre-emergence application) DIGSA (Digitaria sanguinalis [12]; 0.100 kg/ha): 9 (9-Complete kill)
Assessment (pre-emergence application) DIGSA (Digitaria sanguinalis [12]; 0.400 kg/ha): 9 (9-Complete kill)
Assessment (pre-emergence application) GLXMA (Glycine max [13]; 0.100 kg/ha): 3 (3-Moderate effect)
Assessment (pre-emergence application) GLXMA (Glycine max [13]; 0.400 kg/ha): 4 (4-Injury)
Assessment (pre-emergence application) ORYSA (Orysa sativa [14]; 0.013 kg/ha): 1 (1-Trace effect)
Assessment (pre-emergence application) ORYSA (Orysa sativa [14]; 0.025 kg/ha): 2 (2-Slight effect)
Assessment (pre-emergence application) ORYSA (Orysa sativa [14]; 0.100 kg/ha): 3 (3-Moderate effect)
Assessment (pre-emergence application) ORYSA (Orysa sativa [14]; 0.400 kg/ha): 5 (5-Definite injury)
Post-emergence application ECHCG (Echinochloa crus-galli [15]; 0.025 kg/ha): 4 (4-Injury)
Post-emergence application ECHCG (Echinochloa crus-galli [15]; 0.100 kg/ha): 7 (7-Good herbicidal effect)
Post-emergence application ECHCG (Echinochloa crus-galli [15]; 0.400 kg/ha): 8 (8-Approaching complete kill)
Post-emergence application CASOB (Cassia obtusifolia [16]; 0.025 kg/ha): 6 (6-Herbicidal effect)
Post-emergence application CASOB (Cassia obtusifolia [16]; 0.100 kg/ha): 7 (7-Good herbicidal effect)
Post-emergence application CASOB (Cassia obtusifolia [16]; 0.400 kg/ha): 7 (7-Good herbicidal effect)
Post-emergence application IPOHE (Ipomoea hederacea [17]; 0.025 kg/ha): 6 (6-Herbicidal effect)
Post-emergence application IPOHE (Ipomoea hederacea [17]; 0.400 kg/ha): 8 (8-Approaching complete kill)
Post-emergence application ZEAMX (Zea mays [18]; 0.025 kg/ha): 2 (2-Slight effect)
Post-emergence application ZEAMX (Zea mays [18]; 0.100 kg/ha): 4 (4-Injury)
Post-emergence application ZEAMX (Zea mays [18]; 0.400 kg/ha): 5 (5-Definite injury)
Post-emergence application SETVI (Setaria viridis [19]; 0.025 kg/ha): 7 (7-Good herbicidal effect)
Post-emergence application SETVI (Setaria viridis [19]; 0.100 kg/ha): 8 (8-Approaching complete kill)
Post-emergence application SETVI (Setaria viridis [19]; 0.400 kg/ha): 8 (8-Approaching complete kill)
Post-emergence application MATIN (Matricaria inodora [20]; 0.025 kg/ha): 4 (4-Injury)
Post-emergence application MATIN (Matricaria inodora [20]; 0.100 kg/ha): 5 (5-Definite injury)
Post-emergence application MATIN (Matricaria inodora [20]; 0.400 kg/ha): 6 (6-Herbicidal effect)
Post-emergence application ABUTH (Abutilon theophrasti [21]; 0.025 kg/ha): 4 (4-Injury)
Post-emergence application ABUTH (Abutilon theophrasti [21]; 0.100 kg/ha): 5 (5-Definite injury)
Post-emergence application ABUTH (Abutilon theophrasti [21]; 0.400 kg/ha): 6 (6-Herbicidal effect)
Post-emergence application ALOMY (Alopecurus myosuroides [22]; 0.025 kg/ha): 4 (4-Injury)
Post-emergence application ALOMY (Alopecurus myosuroides [22]; 0.100 kg/ha): 7 (7-Good herbicidal effect)
Post-emergence application ALOMY (Alopecurus myosuroides [22]; 0.400 kg/ha): 8 (8-Approaching complete kill)
Post-emergence application STEME (Stellaria media [23]; 0.025 kg/ha): 5 (5-Definite injury)
Post-emergence application STEME (Stellaria media [23]; 0.100 kg/ha): 6 (6-Herbicidal effect)
Post-emergence application STEME (Stellaria media [23]; 0.400 kg/ha): 7 (7-Good herbicidal effect)
Post-emergence application TRZWA (Triticum aestivum [24]; 0.025 kg/ha): 2 (2-Slight effect)
Post-emergence application TRZWA (Triticum aestivum [24]; 0.100 kg/ha): 3 (3-Moderate effect)
Post-emergence application TRZWA (Triticum aestivum [24]; 0.400 kg/ha): 3 (3-Moderate effect)
Post-emergence application GALAP (Galium aparine [25]; 0.025 kg/ha): 6 (6-Herbicidal effect)
Post-emergence application GALAP (Galium aparine [25]; 0.100 kg/ha): 6 (6-Herbicidal effect)
Post-emergence application GALAP (Galium aparine [25]; 0.400 kg/ha): 6 (6-Herbicidal effect)
Post-emergence application DIGSA (Digitaria sanguinalis [26]; 0.025 kg/ha): 3 (3-Moderate effect)
Post-emergence application DIGSA (Digitaria sanguinalis [26]; 0.100 kg/ha): 7 (7-Good herbicidal effect)
Post-emergence application DIGSA (Digitaria sanguinalis [26]; 0.400 kg/ha): 7 (7-Good herbicidal effect)
Post-emergence application GLXMA (Glycine max [27]; 0.025 kg/ha): 5 (5-Definite injury)
Post-emergence application GLXMA (Glycine max [27]; 0.100 kg/ha): 6 (6-Herbicidal effect)
Post-emergence application GLXMA (Glycine max [27]; 0.400 kg/ha): 6 (6-Herbicidal effect)
Post-emergence application ORYSA (Orysa sativa [28]; 0.025 kg/ha): 2 (2-Slight effect)
Post-emergence application ORYSA (Orysa sativa [28]; 0.100 kg/ha): 3 (3-Moderate effect)
Post-emergence application ORYSA (Orysa sativa [28]; 0.400 kg/ha): 4 (4-Injury)
